Test: Fluorescence intensity of NBD-GGBP-CMC in presence and absence of glucose
Format: biochemical
Details: 100 nM preparation, 20 mM glucose; FIG. 6
Experimental: Covalent attachment was performed by activating carboxymethyl groups on the hydrogel polymer (CMC) with a mixture of N-hydroxysuccinimide (NHS) and N-ethyl-N′-(dimethylaminopropyl) carbodiimide (EDC). This forms an intermediate that is reactive to amines. NHS (100 mM) and EDC (400 mM) in water were mixed in a 1:1 vol:vol ratio. An equal volume of hydrogel polymer (25 mg/mL CMC in H2O) and the EDC/NHS mixture were combined, and incubated at room temperature for 15 to 30 minutes. The unreacted EDC and NHS were removed from the hydrogel polymer by eluting the polymer from a NAP-5 column. Varying amounts of activated hydrogel polymer were combined with the fluorescently-labeled GGBP (in this example, the NBD-A213C/L238C-GGBP-His6 mutant). The activated hydrogel polymer and protein were gently mixed, at room temperature, for 1 to 2 hours. […] An absorbance scan of solution not retained by the 100 kDa filter indicated no unattached protein remained. […] Activity of the NBD-GGBP-CMC was determined by fluorescence intensity measurement of the NBD-GGBP-CMC in the presence of high concentration glucose (20 mM) and in the absence of glucose. Thus, 100 nM preparations of the NBD-GGBP-CMC, as well as unattached NBD-GGBP (control) were measured before and after the addition of glucose (FIG. 6). […]

Substance: NBD-GGBP-CMC: NBD-labeled GGBP randomly covalently attached to carboxymethyl cellulose hydrogel polymer via EDC/NHS
- signal in the presence of glucose compared to the absence of glucose: strong signal
